From US20100168085A1, “Dopamine and agonists and antagonists thereof for modulation of suppressive activity of CD4+CD25+ regulatory T cells” (YESA RESEARCH AND DEVELOPMENT CO. LTD. at the Weizmann …, priority 2003, published 2010)
Marks after values point to notes of the source that are not given here.

Legend:
[1] = test system: migration of T cells towards SDF-1
Procedure: (§2) The migration of T cells across polycarbonate filters (pore size 5 μm, diameter 6.5 mm) towards SDF-1 and MDC (CCL22) was assayed in 24-well Transwell chambers (Costar, Corning, Corning, N.Y.). T lymphocytes (1.67×10^6 cells/mL) were suspended in RPMI/0.1% BSA, and 150 μL of the cell suspension was added to the upper chamber after incubation with or without dopamine (90 min, 37° C.). Chemokines were added to the lower chamber at concentrations of 1 μg/mL SDF-1 (CytoLab, Israel) and 0.25 μg/mL MDC (R&D Systems). The plates were incubated for 90 min at 37° C. in 9.5% CO2. […] The numbers of migrating T cells were measured by flow cytometer acquisition for a fixed time (60 s). To calculate specific migration, the number of cells in each subpopulation in the absence of chemokine was subtracted from the number in the corresponding cell subpopulation that migrated in the presence of chemokines. The number of migrating CD4^+CD25^+ T cells was calculated as a percentage of the total T cell population before migration. For migration of purified population we used a similar protocol.
We also examined the migration of a mixed T cell population towards SDF-1.

[2] = test system: suppressive activity of Treg in vivo (neuronal survival); conditions: Treg incubated with dopamine (10^−5 M, 2 h) prior to systemic injection
Description: To unequivocally show the direct effect of dopamine on Treg activity in vivo, we examined whether direct exposure of Treg to dopamine can reduce their suppressive activity in a model of neuronal survival.

[3] = test system: mice, glutamate-induced retinal ganglion cell death; experiment: Intravitreal glutamate toxicity, retinal ganglion cell survival; assay type: in vivo, mouse
Procedure: (iii) Intravitreal glutamate injection. The right eyes of anesthetized mice were punctured with a 27-gauge needle in the upper part of the sclera, and a 10-μL Hamilton syringe with a 30-gauge needle was inserted as far as the vitreal body. A total volume of 1 μl, of L-glutamate (400 nmol) dissolved in saline was injected into the eye.
(iv) Retrograde labeling of retinal ganglion cells. Mice were anesthetized and placed in a stereotactic device. The skull was exposed and kept dry and clean. The bregma was identified and marked. The designated point of injection was at a depth of 2 mm from the brain surface, 2.92 mm behind the bregma in the anteroposterior axis and 0.5 mm lateral to the midline. A window was drilled in the scalp above the designated coordinates in the right and left hemispheres. The neurotracer dye FluoroGold (5% solution in saline; Fluorochrome, Denver, Colo.) was applied (1 μL, at a rate of 0.5 μL/min in each hemisphere) using a Hamilton syringe, and the skin over the wound was sutured.
(xxi) Assessment of mouse retinal ganglion cell survival. Mice were given a lethal dose of pentobarbitone (170 mg/kg). Their eyes were enucleated and the retinas were detached and prepared as flattened whole mounts in 4% paraformaldehyde solution. Labeled cells from 4-6 selected fields of identical size (0.7 mm^2) were counted. The selected fields were located at approximately the same distance from the optic disk (0.3 mm) to overcome the variation in RGC density as a function of distance from the optic disk. Fields were counted under the fluorescence microscope (magnification ×800) by observers blinded to the identity of the retinas. The average number of RGCs per field in each retina was calculated.
Injection of glutamate into the eyes of adult mice causes retinal ganglion cell death that is measurable 1 week after the injection (Mizrahi et al., 2002; Schori et al., 2001a; Katayama et al., 1990). We injected Balb/c mice intraperitoneally (i.p.) with the dopamine, or its specific D1-type agonist SKF-38393 (3.3 mg/kg), or its specific D1-type antagonist SCH-23390 (3 mg/kg), immediately after their exposure to glutamate toxicity. We also injected SCID Balb/c mice with SKF-38393 (3.3 mg/kg) immediately after glutamate intoxication.
Immediately after glutamate intoxication mice were systemically injected with the indicated drugs. Neuronal survival was determined ten days later (see Materials and Methods). The results are expressed by changes (in percentage) in neuronal survival in treated mice relative to untreated mice. Each value represents a mean±SEM of a group of at least 5 animals, and each experiment was performed at least twice, independently. Asterisks (***, P<0.001; **, P<0.01) indicate statistical significance of the presented data from a single experiment using a Student's T-test statistical analysis. (NT—not tested; ns—no statistical significance).

[4] = test system: CXCR-4 and CCR-8 mRNA in Treg; conditions: data not shown
[5] = test system: migration of Treg towards MDC (CCL22)
Procedure: as §2
We therefore examined whether exposure to dopamine would also affect Treg migration. For this experiment we used a normal population of CD4^+ T cells, of which Treg (CD4^+CD25^+) accounts for approximately 11% (FIG. 4e).
To examine the direct effect of dopamine on the migration of Treg, we assayed the effect of dopamine on the migration of purified Treg towards MDC. The migratory Treg were stained for CD4 to ensure that cell debris and aggregates would not be counted among them.

[6] = test system: CD44 expression in Treg and Teff
Procedure: (§1) To verify that the effect of dopamine on adhesion of Treg is exerted through the ERK1/2 pathway, we incubated Treg with the ERK1/2 signaling pathway inhibitor PD98059 before carrying out the adhesion assay. […] Since interaction of T cells with CSPG is mediated in part by the CD44 receptor (Henke et al., 1996), and in light of the known dependence of CD44 expression on the ERK signaling pathway, it was conceivable that dopamine might affect the expression of CD44 in Treg.

[7] = test system: LFA-1, I-CAM, and V-CAM in Treg; conditions: data not shown
Procedure: as §1

solid tumor cells M2R = conditions: Treg 2×10^6 cells exposed to dopamine 10^−5 M
Description: In another experiment, mice (n=10) were inoculated with solid tumor cells M2R, and received an immediate injection of Treg (2×10^6 cells) with and without exposure to dopamine (10^−5M). Control animals (n=10) received an injection of vehicle (PBS) following cancer cells inoculation.

SMILES: NCCc1ccc(O)c(O)c1 [dopamine, 3,4-dihydroxyphenethylamine]
- Migration pattern of mixed T cell population towards SDF-1 [1]: did not alter this pattern
- Suppressive effect of injected Treg on neuronal survival [2]: abolished their suppressive effect
- Increase in neuronal survival relative to PBS-treated glutamate-injected controls ([3]; Balb/c, single i.p. injection, dopamine 0.4 mg/kg, SKF-38393 3.3 mg/kg): 18±2.5%
- Changes in neuronal survival in treated relative to untreated mice (mean±SEM) ([3]; Wild type mice, systemic injection immediately after glutamate intoxication): 18 ± 2.5*** percentage
- Expression of mRNA for CXCR-4 and CCR-8 in Treg [4]: did not change
- Migration of purified Treg towards MDC [5]: almost completely abolished
- Treg (CD4+CD25+) share of CD4+ cells migrating towards MDC ([5]; after exposure of CD4+ population to dopamine, 17% without dopamine): approximately 10%
- Migration of Teff ([5]; data not shown): no effect
- CD44 immunoreactivity in Treg ([6]; activated 24 h, 2 h with dopamine): decreased CD44 immunoreactivity
- CD44 expression in Teff ([6]; after incubation with dopamine): not affected
- LFA-1, I-CAM, V-CAM in Treg [7]: did not show any dopamine-related changes
- Tumor development in mice injected with Treg exposed to dopamine (solid tumor cells M2R): did not differ from control mice
